The nature of series [1]: Systemic toxicity of pPhD NPs (body weight, H&E). Type of series: in vivo. The procedure: Tumor volume and body weight measurements. The body weights and tumor sizes were monitored three times a week, and the tumor volume was calculated by the following formula: Tumor volume=Length×(Width/2)^2.
H&E evaluation. All laser-treated tumors were collected and stained with hematoxylin and eosin (H&E) to evaluate the effect of phototherapy. The main organs of each group, including heart, liver, spleen, lung, kidney, small intestine, were collected for H&E assay to evaluate the toxicity of the materials.

A further series deals with OSC-3 cells. Put plainly: Cell viability with or without laser.
In series [2] the test system is A549 human lung cancer cells. Put plainly: Cell uptake and intracellular ROS production. Type of series: cell-based. Conditions: upon laser/light illumination. The procedure:
Cell uptake and intracellular ROS production. […] After three times of washes with PBS, cells were incubated with 50 μM DCF-DA for 30 minutes. Samples were treated with or without light (630 nm, Omnilux New-U LED panel) for 1 minute, and intracellular […] (based on Pa fluorescence) and ROS production were analyzed by flow cytometry ([…], BD Bioscience, SD, CA).

Another series deals with U87-MG tumour cells. Put plainly: Cell viability (MTS) with or without laser. Type of series: cell-based. On the procedure:
Cell viabilities evaluation. U87-MG cells were purchased from the American Type Culture Collection (ATCC, Manassas, Va., USA). Cells were cultured in RPMI 1640 Medium supplemented with 10% fetal bovine serum, 100 U/mL penicillin G, and […] streptomycin in a humidified 37° C. with 5% CO2. Cell viabilities were determined by MTS method. U87-MG cells were seeded in 96-well plates with a density of 5000 cells per well. The cells were incubated overnight until fully attached. The cells were treated with different concentrations of Pa, Ir, Pa and Ir mixture and PIN. 12 h later, the extracellular materials were washed off with PBS and replaced with fresh culture media. Laser treated group were exposed under a laser source of Omnilux New-U device (630 nm) for 3 min, and further incubated with non-laser treated cells for another 24 h. MTS was added to each well and further incubated for 2 h. The UV-vis absorbance at 495 nm with a reference wavelength of 630 nm was detected using a micro-plate reader using an SpectraMax M3 Multi-Mode Microplate Readers (Molecular Devices, LLC., CA, USA). Untreated cells in medium were used as controls. […]. Results were shown as the average cell viability [(ODtreat−ODblank)/(ODcontrol−ODblank)*100%] of triplicate wells.

A further series relates to A549 cells. Nature of the series: Cytotoxicity assay (MTS) with or without light. Conditions: upon light treatment (630 nm, 3 min). It counts as cell-based, human. The procedure:
Cytotoxicity assay. Cell viabilities were determined by MTS method according to manufactory manual (Promega, Madison, Wis.). A549 cells were seeded in 96-wells plates with a density of 5000 cells per well. […] Six hours later, medium was replaced with fresh complete media followed by illumination with 630 nm light for 3 minutes. After additional 24 hours incubation, MTS working solution was added and the absorbance at 490 nm was evaluated by SpectraMax M3 microplate reader. Experiments were performed in triplicate, and 3 independent experiments were conducted.

Description for OSC-3 cells: The synergistic effect of the chemotherapy and phototherapy of pPhD NPs was evaluated. OSC-3 cells were incubated with different concentrations of free photosensitizer (Phy), free chemotherapeutic drug (DOX) and pPhD NPs, respectively, then treated with or without laser (FIG. 11i).

Take `COc1cccc2c1C(=O)c1c(O)c3c(c(O)c1C2=O)C[C@@](O)(C(=O)CO)C[C@@H]3O[C@H]1C[C@H](N)[C@H](O)[C@H](C)O1` [DOX, doxorubicin]: in series [1] (during treatment), the “body weight changes / systemic toxicity” value is listed as “obvious body weights loss”. For the same compound, the “lesion of major organs (H&E)” value in series [1] (mouse, in vivo) was “obvious liver and heart toxicity”. Besides, in the series on OSC-3 cells, the cytotoxicity entry is recorded as “notable anti-tumor efficacy”.

As for `CCc1c2c(nc3ccc(OC(=O)N4CCC(N5CCCCC5)CC4)cc13)-c1cc3c(c(=O)n1C2)COC(=O)[C@]3(O)CC` [Ir, irinotecan], the “intracellular ROS production” value in series [2] is reported as “did not produce intracellular ROS”.

A word on the IC50: it is the concentration that inhibits the measured activity by half. A higher IC50 goes with a need for much substance. On to pheophorbide A [Pa], for which the 50% inhibitory concentration (IC50) was around 50 µM in the series on U87-MG tumour cells (with laser treatment (630 nm, 3 min)) and 7 µM in the series with A549 cells. Further, in the series on U87-MG tumour cells (without laser), the cytotoxicity result is “no obvious cytotoxicity”.

In the case of pheophorbide a-hydrazide [Phy], in the series on OSC-3 cells, the cytotoxicity entry is recorded as “no obvious cytotoxicity”.
